Results reported in article PMC10510324, “A Biomimetic C-Terminal Extension Strategy for Photocaging Amidated Neuropeptides” (Journal of the American Chemical Society, 2023).
Starred links: 1 amine or outer side, 2 acyl side, 3 side chain; linkers in the order of their positions; H or OH if unused. Non-standard residues stand in square brackets, D forms with d. Residues, ends and D or L forms follow the SMILES beside them. No end group written: not given here. X1 = COc1cc(C(CC(=O)[*:2])N[*:1])c([N+](=O)[O-])cc1OC; DMNBA = dimethoxynitrobenzyl beta-alanine, racemic

Columns and labels:
GRPR = biological target: T1, GRPR (Mus musculus, UniProt P21729); assay: Whole-cell recording of membrane currents, VIP interneurons of motor cortex, acute brain slices; format: cell-based
T1 construct: from tissue; host or cells: acute mouse brain slices, VIP interneurons of primary motor cortex (VipCre; Ai14 mice)
Source text: (§1) Photoactivatable neuropeptides are powerful tools that can drive studies into the mechanisms of endogenous receptor signaling in acute brain slices.[3],[8],[40] To determine if NPP-caged peptides are compatible with such experiments, we established electrophysiological assays for measuring the activation of GRPR, OTR, NK1R, and CCK2R in acute brain slices taken from transgenic mice. These assays involved whole cell recordings of membrane currents from genetically defined neurons located in different brain regions where endogenous receptor activation produces inward, excitatory currents that facilitate action potential firing. Neuropeptide receptor-expressing cells were identified for fluorescence-guided, targeted electrophysiological recordings using transgenic mice that contain transgenes encoding Cre-recombinase under a promotor that is specific to the cell of interest, as well as a Cre-dependent tdTomato fluorescent protein via the Ai14 (Rosa26-lsl-tdTomato) reporter strain. […]
(§2) (A) Average inward currents over time after bath application of GRP(14-27)-NPP (3 μM, n = 5 cells from 4 mice) or GRP(14-27) (300 nM, n = 5 from 4 mice), recorded from fluorescently labeled VIP interneurons in layer 1 of the motor cortex. Data are expressed as the mean ± SEM. […] Data are expressed as the mean ± SEM. […] Data are expressed as the mean ± SEM. […] Data are expressed as the mean ± SEM. […]

[1] = biological target: T2, gastrin-releasing peptide receptor (GRPR) (Mus musculus, UniProt P21729); assay: GloSensor cAMP assay of GPCR activation, GRPR; format: cell-based; conditions: for EC50: GloSensor cAMP, n = 10 wells per data point
T2 construct: host or cells: HEK293T
Source text: To determine the effectiveness of the C-TEx caging strategy at attenuating peptide activity, we conducted a live-cell functional assay of GPCR activation in HEK293T cells transfected to express the primary receptors for each neuropeptide. The GloSensor assay reports changes in cyclic adenosine monophosphate (cAMP) signaling as a function of GPCR activation. […] To adapt this cAMP assay to report the activation of Gq-coupled GPCRs, we coexpressed a chimeric Gαs/Gαq protein (sq5) that allows Gq-coupled GPCRs to strongly engage the Gs pathway to elevate cAMP via activation of adenylyl cyclase.[39]
Figure 3 In vitro characterization of NPP-caged neuropeptides using a functional assay of G protein signaling. (A) Dose–response curves at the gastrin-releasing peptide receptor (GRPR) using a GloSensor assay of cAMP signaling in HEK293T cells (n = 10 wells per data point). Data were normalized to the maximal response to GRP(14-27) (300 nM) and are expressed as the mean ± SEM.
Reagent type (species) Designation Source or Identifiers
GRPR plasmid mGRPR Genscript Clone ID OMu14220D
OTR plasmid hOXR cdna.org Cat # OXTR000000
CCK1R hCCK1R cdna.org Cat # CCKAR00000
CCK2R plasmid hCCK2R cdna.org Cat # CCKBR00000
NK1R plasmid hNK1R cdna.org Cat # TACR100000
HEK293T cells ATCC.org Cat # CRL-3216
GloSensor plasmid pGloSensor - Promega Cat # E2301
GloSensor reagent cAMP Reagent Promega Product # E1291
VIP-IRES-CRE, C57Bl/6J The Jackson background (M. musculus, VipCre Laboratory Cat # 010908
Ai14, C57Bl/6J Rosa26-lsl- The Jackson background (M. musculus, tdTomato (Ai14) Laboratory Cat # 007914 […]
C57Bl/6J background (M. ChatCre The Jackson Cat # 006410 musculus, male and Laboratory
Pvalb-IRES-Cre, C57Bl/6J The Jackson background (M. musculus, PvalbCre Cat # 017320 male and female) Laboratory […]
parent peptide. […] The solutions were illuminated in 15 sec periods, after which samples were removed and analyzed by LC-MS using a linear gradient (water/MeCN 5%/95% → MeCN 100%, 0-8 min with 0.1% formic acid) and a C-18 column (4.6 × 50 mm, 1.8 μm) (Agilent). Each compound was assessed in triplicate. […]

OTR = biological target: T3, OTR (Mus musculus, UniProt P97926); assay: Whole-cell recording of membrane currents, PV interneurons of hippocampal CA1 and CA2, acute brain slices; format: cell-based
T3 construct: from tissue; host or cells: acute mouse brain slices, PV interneurons of hippocampal CA1 and CA2 (PvalbCre; Ai14 mice)
T3 sequence (P97926 1-388): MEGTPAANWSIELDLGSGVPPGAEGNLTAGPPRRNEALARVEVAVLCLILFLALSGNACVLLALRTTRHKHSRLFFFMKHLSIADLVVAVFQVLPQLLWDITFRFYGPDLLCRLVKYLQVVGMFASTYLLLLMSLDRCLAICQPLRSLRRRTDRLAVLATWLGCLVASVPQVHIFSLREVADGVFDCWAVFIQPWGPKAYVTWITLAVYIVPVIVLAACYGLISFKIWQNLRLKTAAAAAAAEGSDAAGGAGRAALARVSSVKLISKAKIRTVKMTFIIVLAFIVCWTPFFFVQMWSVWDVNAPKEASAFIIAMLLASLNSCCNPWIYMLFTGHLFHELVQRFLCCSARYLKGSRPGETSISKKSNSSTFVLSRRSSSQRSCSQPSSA
Source text: as §1, §2

NK1R = biological target: T4, NK1R (Mus musculus, UniProt P30548); assay: Whole-cell recording of membrane currents, striatal cholinergic interneurons, acute brain slices; format: cell-based
T4 construct: from tissue; host or cells: acute mouse brain slices, cholinergic interneurons of dorsal striatum (ChatCre; Ai14 mice)
Source text: Photoactivatable neuropeptides are powerful tools that can drive studies into the mechanisms of endogenous receptor signaling in acute brain slices.[3],[8],[40] To determine if NPP-caged peptides are compatible with such experiments, we established electrophysiological assays for measuring the activation of GRPR, OTR, NK1R, and CCK2R in acute brain slices taken from transgenic mice. These assays involved whole cell recordings of membrane currents from genetically defined neurons located in different brain regions where endogenous receptor activation produces inward, excitatory currents that facilitate action potential firing. Neuropeptide receptor-expressing cells were identified for fluorescence-guided, targeted electrophysiological recordings using transgenic mice that contain transgenes encoding Cre-recombinase under a promotor that is specific to the cell of interest, as well as a Cre-dependent tdTomato fluorescent protein via the Ai14 (Rosa26-lsl-tdTomato) reporter strain.
Our experimental framework for evaluating NPP-caged peptides in brain slices is as follows. To assess residual activity, we compared the membrane currents evoked by bath application of the parent peptide and NPP-caged peptide. To evaluate photoactivation, we compared the peak current evoked by a single, high-intensity (20–200 ms, 50–80 mW) light flash from either a 355 nm laser or 365 nm LED, to the current evoked by bath application of the parent peptide, the NPP-caged peptide without light, and NPP-peptide photoactivation in the presence of a receptor antagonist.
(A) Average inward currents over time after bath application of GRP(14-27)-NPP (3 μM, n = 5 cells from 4 mice) or GRP(14-27) (300 nM, n = 5 from 4 mice), recorded from fluorescently labeled VIP interneurons in layer 1 of the motor cortex. Data are expressed as the mean ± SEM. (B) Average inward currents evoked by photoactivation of GRP(14-27)-NPP (3 μM) with an […] light flash in the absence (green, n = 10 cells from 4 mice) and presence of the GRPR antagonist BW1023U90 (1 μM) (black, n = 6 cells from 2 mice). […] Data are expressed as the mean ± SEM. […] Data are expressed as the mean ± SEM. […] Data are expressed as the mean ± SEM. […] Data are expressed as the mean ± SEM.
Brain slice preparation. All procedures were performed in accordance with protocols approved by the University of California San Diego Institutional Animal Care and Use Committee (IACUC) following guidelines described in the US National Institutes of Health Guide for Care and Use of Laboratory Animals (UCSD IACUC protocol S16171). Experiments were conducted using mice of both sexes and the data were combined. From Vip Cre; Rosa26-lsl-tdTomato (Ai14), mouse age ranged from P15-30. From Pvalb Cre; Rosa26-lsl-tdTomato (Ai14), mouse age ranged from P20-35. From Chat Cre; Rosa26-lsl-tdTomato (Ai14), mouse age ranged from P40-100. Mice were anesthetized with isoﬂurane and decapitated, and the brain was removed, blocked, and mounted in a VT1000S vibratome (Leica Instruments). For recordings from cortex and striatum, coronal slices (300 μm) were prepared, and for hippocampus, horizontal slices

[2] = biological target: gastrin-releasing peptide receptor (UniProt P30550)
gastrin-releasing peptide receptor, sequence (P30550 whole entry): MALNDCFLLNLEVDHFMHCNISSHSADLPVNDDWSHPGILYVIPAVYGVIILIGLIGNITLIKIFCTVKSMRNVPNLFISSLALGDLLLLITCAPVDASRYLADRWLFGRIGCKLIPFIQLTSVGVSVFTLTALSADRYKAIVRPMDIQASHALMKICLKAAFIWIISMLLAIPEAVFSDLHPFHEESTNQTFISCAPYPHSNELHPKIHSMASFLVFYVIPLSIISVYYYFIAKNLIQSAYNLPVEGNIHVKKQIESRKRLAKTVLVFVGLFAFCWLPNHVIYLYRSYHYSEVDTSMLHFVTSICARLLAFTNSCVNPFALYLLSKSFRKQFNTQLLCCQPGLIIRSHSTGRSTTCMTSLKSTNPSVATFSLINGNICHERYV

T2 sequence (P21729 whole entry): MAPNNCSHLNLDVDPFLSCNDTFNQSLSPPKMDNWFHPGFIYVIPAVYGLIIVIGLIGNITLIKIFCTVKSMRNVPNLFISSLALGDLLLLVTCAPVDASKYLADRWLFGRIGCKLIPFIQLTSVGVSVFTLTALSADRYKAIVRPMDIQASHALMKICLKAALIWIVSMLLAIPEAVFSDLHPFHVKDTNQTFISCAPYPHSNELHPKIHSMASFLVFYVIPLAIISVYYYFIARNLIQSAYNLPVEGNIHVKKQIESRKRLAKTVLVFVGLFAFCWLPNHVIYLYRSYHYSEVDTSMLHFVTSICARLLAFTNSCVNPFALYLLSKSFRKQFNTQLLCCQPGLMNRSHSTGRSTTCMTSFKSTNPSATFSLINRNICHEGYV
T4 sequence (P30548 whole entry): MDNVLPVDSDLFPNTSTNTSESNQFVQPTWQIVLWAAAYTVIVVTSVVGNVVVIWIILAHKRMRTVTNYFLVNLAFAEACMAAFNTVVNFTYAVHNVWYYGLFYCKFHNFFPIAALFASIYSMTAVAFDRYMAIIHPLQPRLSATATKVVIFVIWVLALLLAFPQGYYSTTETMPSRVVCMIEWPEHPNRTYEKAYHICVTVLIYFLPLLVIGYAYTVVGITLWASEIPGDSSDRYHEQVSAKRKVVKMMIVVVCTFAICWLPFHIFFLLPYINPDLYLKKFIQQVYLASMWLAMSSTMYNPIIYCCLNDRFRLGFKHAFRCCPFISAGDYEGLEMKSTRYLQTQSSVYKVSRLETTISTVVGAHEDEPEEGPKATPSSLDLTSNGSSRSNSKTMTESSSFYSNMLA
T1 sequence (P21729 whole entry): as the sequence (P21729 whole entry) above

## 3-Phenylpropanoyl-His-Trp-Ala-Val-D-Ala-His-D-Pro-CH2NH-Phe-NH2 [BW1023U90]
GRPR; antagonist 1 μM
  block of light-evoked GRP(14-27)-NPP current: completely blocked

## CSCC[C@H](NC(=O)[C@H](CC(C)C)NC(=O)[C@H](Cc1c[nH]cn1)NC(=O)CNC(=O)[C@@H](NC(=O)[C@H](C)NC(=O)[C@H](Cc1c[nH]c2ccccc12)NC(=O)[C@H](Cc1c[nH]cn1)NC(=O)[C@H](CC(N)=O)NC(=O)CNC(=O)[C@H](CCCNC(=N)N)NC(=O)[C@@H]1CCCN1C(=O)[C@H](Cc1ccc(O)cc1)NC(=O)[C@@H](N)CCSC)C(C)C)C(N)=O [GRP(14-27), Gastrin-releasing peptide (14-27)]
GRPR; 300 nM, n = 5 cells from 4 mice, held at −55 mV, mean ± SEM
  peak current amplitude, bath application: −62.8 ± 12.8
[1]; HEK293T cells coexpressing chimeric Gαs/Gαq (sq5), normalized to GRP(14-27) 300 nM
  EC50: 0.0006 µM

## COc1cc(C(CC(=O)N[C@@H](CCCNC(=N)N)C(=O)N[C@@H](CCCCN)C(=O)N2CCC[C@H]2C(=O)N[C@@H](CCC(=O)O)C(=O)N[C@@H](CCCCN)C(=O)O)NC(=O)[C@H](CCSC)NC(=O)[C@H](CC(C)C)NC(=O)[C@H](Cc2c[nH]cn2)NC(=O)CNC(=O)[C@@H](NC(=O)[C@H](C)NC(=O)[C@H](Cc2c[nH]c3ccccc23)NC(=O)[C@H](Cc2c[nH]cn2)NC(=O)[C@H](CC(N)=O)NC(=O)CNC(=O)[C@H](CCCNC(=N)N)NC(=O)[C@@H]2CCCN2C(=O)[C@H](Cc2ccc(O)cc2)NC(=O)[C@@H](N)CCSC)C(C)C)c([N+](=O)[O-])cc1OC (stereo partly drawn) [GRP(14-27)-NPP] (H-MYPRGNHWAVGHLM[X1]RKPEK-OH)
[1]; HEK293T cells coexpressing sq5, no light
  EC50: 6.1 µM
[1]; caged versus parent peptide
  reduction of EC50 (potency) at the GRPR by NPP-caging: ~10,000 fold

## CC[C@H](C)[C@@H]1NC(=O)[C@H](Cc2ccc(O)cc2)NC(=O)[C@@H](N)CSSC[C@@H](C(=O)N2CCC[C@H]2C(=O)N[C@@H](CC(C)C)C(=O)NCC(N)=O)NC(=O)[C@H](CC(N)=O)NC(=O)[C@H](CCC(N)=O)NC1=O [OT, Oxytocin]
OTR; 300 nM, n = 7 from 4 mice, held at -70 mV, mean ± SEM
  peak current amplitude, bath application: −35.8 ± 5.7

## COc1ccccc1CC(=N)N1C[C@@H]2C(=O)CCC(c3ccccc3)(c3ccccc3)[C@@H]2C1 [RP67580, (3aR,7aR)-Octahydro-2-[1-imino-2-(2-methoxyphenyl)ethyl]-7,7-diphenyl-4H-isoindol]
NK1R; antagonist 10 μM
  block of light-evoked SP-NPP current: largely blocked

## (d(CH2)5^1,Tyr(Me)^2,Thr^4,Orn^8,des-Gly-NH2^9)-Vasotocin [OTA]
OTR; antagonist 1 μM
  block of light-evoked OT-NPP current: blocked

## SP-NPP: NPP-caged substance P
NK1R; 1 μM, 1:1 mixture of diastereomers, n = 6 cells from 5 mice, mean ± SEM
  peak current amplitude, bath application without light: −5.2 ± 13.6
NK1R; 1 μM, 1 × 20 ms, 84 mW, 365 nm LED, n = 5 cells from 5 mice, mean ± SEM
  peak current amplitude, photoactivation (+ UV): −265.5 ± 19.7
NK1R; 3 μM as printed in the text, 1:1 mixture of diastereomers
  activity on bath application without light: inactive
NK1R; 1 × 20 ms, 84 mW, 365 nm LED
  τon of light-evoked current: 1.1 s
NK1R; 1 × 20 ms, 84 mW, 365 nm LED, biphasic decay
  τoff slow of light-evoked current: 19.5 s

B1: GRP(14-27)-NPP (peptide)
peptide: MYPRGNHWAVGHLM[DMNBA]RKPEK
modifications: also: DMNBA racemic, diastereomers not resolved
[2]
  EC50 of receptor activation, GloSensor cAMP assay in HEK293T cells co-expressing the chimeric Gαs/Gαq protein sq5: 6.1 µM

B2: gastrin-releasing peptide (14-27) (peptide)
peptide: MYPRGNHWAVGHLM-NH2
[2]
  EC50 of receptor activation, GloSensor cAMP assay in HEK293T cells co-expressing the chimeric Gαs/Gαq protein sq5: 0.0006 µM
